Laboratory results: patent publication EP4678638A1, “NEW E3 UBIQUITIN LIGASE LIGAND, PROTEIN DEGRADATION AGENT AND USE THEREOF” (priority 2023, dated 2024)

What was measured:
[1] = target: T1, human Cereblon WT GST-tagged protein (Homo sapiens, UniProt Q96SW2); assay: CRBN binding, HTRF (CEREBLON BINDING kit); details: Table II-2, CRBN binding screening, HTRF; for inhibition at 0.5 µM: read-out: Inhibition rate (%) at 0.5µM; for inhibition at 2 µM: read-out: Inhibition rate (%) at 2 µM
T1 construct: purchased CISBIO 64BDCRBNPEH
How it was run: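 Competitive HTRF: GST-tagged human WT Cereblon mixed with compound, Thalidomide-Re tracer and GST Eu antibody, incubated 3 h at room temperature. Signals read at 620 and 665 nm.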

RSK1 = target: T2, RSK1 (Homo sapiens, UniProt Q15418); assay: Western blot degradation of RSK1 (hPBMC); format: cell-based; details: Table D8
T2 construct: evaluate the effects of the compounds of the present disclosure on the expression of target proteins in cells; endogenous in cells; host or cells: hPBMC
How it was run: (§1)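 Degradation is assessed by immunoblotting lysates of treated cells. Target bands are quantified by grayscale and normalised to an internal control, so degradation rate equals 100% minus % remaining.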

RSK2 = target: T3, RSK2 (Homo sapiens, UniProt P51812); assay: Western blot degradation of RSK2 (hPBMC); format: cell-based; details: Table D8
T3 construct: evaluate the effects of the compounds of the present disclosure on the expression of target proteins in cells; endogenous in cells; host or cells: hPBMC
How it was run: as §1

T3 sequence (P51812 whole entry): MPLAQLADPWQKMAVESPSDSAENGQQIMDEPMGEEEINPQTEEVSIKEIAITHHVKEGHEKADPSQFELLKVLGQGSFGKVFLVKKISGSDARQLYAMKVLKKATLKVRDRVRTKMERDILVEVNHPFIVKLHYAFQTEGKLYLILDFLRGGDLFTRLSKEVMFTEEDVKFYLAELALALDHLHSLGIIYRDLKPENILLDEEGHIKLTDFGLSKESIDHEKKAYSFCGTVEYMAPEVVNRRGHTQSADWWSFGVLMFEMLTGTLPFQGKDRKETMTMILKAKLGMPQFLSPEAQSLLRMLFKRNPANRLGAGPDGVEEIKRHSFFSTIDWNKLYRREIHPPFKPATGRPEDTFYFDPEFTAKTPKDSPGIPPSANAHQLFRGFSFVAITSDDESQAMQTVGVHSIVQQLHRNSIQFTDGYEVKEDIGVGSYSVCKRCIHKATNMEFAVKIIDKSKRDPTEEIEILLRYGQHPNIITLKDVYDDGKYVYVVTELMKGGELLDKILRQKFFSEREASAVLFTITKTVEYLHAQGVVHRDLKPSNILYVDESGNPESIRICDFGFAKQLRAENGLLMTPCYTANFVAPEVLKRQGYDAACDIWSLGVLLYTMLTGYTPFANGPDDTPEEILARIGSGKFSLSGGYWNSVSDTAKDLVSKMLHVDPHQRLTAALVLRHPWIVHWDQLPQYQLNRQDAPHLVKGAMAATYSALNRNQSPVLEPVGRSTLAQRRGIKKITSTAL
T1 sequence (Q96SW2 whole entry): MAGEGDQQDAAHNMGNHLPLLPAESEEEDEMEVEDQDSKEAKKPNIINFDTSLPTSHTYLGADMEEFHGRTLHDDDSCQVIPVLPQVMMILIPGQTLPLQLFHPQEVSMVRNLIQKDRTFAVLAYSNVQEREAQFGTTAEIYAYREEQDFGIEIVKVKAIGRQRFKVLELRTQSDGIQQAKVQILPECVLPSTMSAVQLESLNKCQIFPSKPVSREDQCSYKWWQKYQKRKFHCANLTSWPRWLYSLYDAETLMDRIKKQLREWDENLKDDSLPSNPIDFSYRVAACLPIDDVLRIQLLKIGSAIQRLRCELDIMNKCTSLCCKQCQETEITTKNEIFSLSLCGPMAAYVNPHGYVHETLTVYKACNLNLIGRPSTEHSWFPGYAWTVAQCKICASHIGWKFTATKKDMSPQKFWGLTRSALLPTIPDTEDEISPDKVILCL
T2 sequence (Q15418 whole entry): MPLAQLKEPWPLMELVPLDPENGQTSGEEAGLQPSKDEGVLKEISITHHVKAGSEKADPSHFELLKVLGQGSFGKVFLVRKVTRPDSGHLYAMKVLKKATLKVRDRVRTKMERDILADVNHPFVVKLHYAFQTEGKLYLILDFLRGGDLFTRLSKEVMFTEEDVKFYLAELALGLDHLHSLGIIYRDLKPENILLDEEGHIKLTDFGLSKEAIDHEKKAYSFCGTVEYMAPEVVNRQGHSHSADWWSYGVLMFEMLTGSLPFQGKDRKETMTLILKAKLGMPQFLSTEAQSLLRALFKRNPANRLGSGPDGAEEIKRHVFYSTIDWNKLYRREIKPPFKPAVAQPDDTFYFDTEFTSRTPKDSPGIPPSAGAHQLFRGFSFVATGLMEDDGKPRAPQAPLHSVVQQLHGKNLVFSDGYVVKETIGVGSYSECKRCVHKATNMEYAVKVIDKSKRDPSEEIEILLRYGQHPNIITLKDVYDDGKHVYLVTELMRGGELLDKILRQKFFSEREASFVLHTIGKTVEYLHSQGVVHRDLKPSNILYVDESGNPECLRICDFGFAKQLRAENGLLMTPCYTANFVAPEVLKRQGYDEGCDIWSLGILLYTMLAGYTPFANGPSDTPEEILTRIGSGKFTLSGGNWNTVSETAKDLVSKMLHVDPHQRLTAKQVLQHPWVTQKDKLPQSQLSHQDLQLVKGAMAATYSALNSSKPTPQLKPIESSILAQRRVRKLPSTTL

Row | inhibition at 0.5 µM [1] [%] | inhibition at 2 µM [1] [%] | SMILES | Degradation of substrate protein RSK1 (substrate protein remaining %) (RSK1) | Degradation of substrate protein RSK2 (substrate protein remaining %) (RSK2)
1 | 20 to 30 | 53 to 60 | C[C@@H]1CNC(=O)c2cc3ccc(C(=O)Nc4cnn(Cc5ccc(N6CCC(N7CCN(Cc8cc(N9CCC(=O)NC9=O)cnc8F)CC7)CC6)cc5)c4)nc3n21 [GT-07962, (R)-N-(1-(4-(4-(4-((5-(2,4-dioxotetrahydropyrimidin-1(2H)-yl)-2-fluoropyridin-3-yl)methyl)piperazin-1-yl)piperidin-1-yl)benzyl)-1H-pyrazol-4-yl)-9-methyl-6-oxo-6,7,8,9-tetrahydropyrido[3',2':4,5]pyrrolo[1,2-a]pyrazine-2-carboxamide] | A (A is defined as 0% ≤ substrate protein remaining % ≤ 80%) | A (A is defined as 0% ≤ substrate protein remaining % ≤ 80%)
2 | 30 to 40 | 53 to 60 | C[C@@H]1CNC(=O)c2cc3ccc(C(=O)Nc4cnn(Cc5ccc(N6CCC(N7CCN(Cc8cc(C9CCC(=O)NC9=O)cnc8F)CC7)CC6)cc5)c4)nc3n21 (stereo partly drawn) [GT-07960, (9R)-N-(1-(4-(4-(4-((5-(2,6-dioxopiperidin-3-yl)-2-fluoropyridin-3-yl)methyl)piperazin-1-yl)piperidin-1-yl)benzyl)-1H-pyrazol-4-yl)-9-methyl-6-oxo-6,7,8,9-tetrahydropyrido[3',2':4,5]pyrrolo[1,2-a]pyrazine-2-carboxamide] | A (A is defined as 0% ≤ substrate protein remaining % ≤ 80%) | B (B is defined as substrate protein remaining % > 80%)

The remaining lines, values behind:

Row | SMILES | inhibition at 0.5 µM [1] [%] | inhibition at 2 µM [1] [%] | Degradation of substrate protein RSK1 (substrate protein remaining %) (RSK1) | Degradation of substrate protein RSK2 (substrate protein remaining %) (RSK2)
3 | C[C@@H]1CNC(=O)c2cc3ccc(C(=O)Nc4cnn(Cc5ccc(NCc6ccnc(N7CCC(=O)NC7=O)c6)cc5)c4)nc3n21 [GT-07795, (R)-N-(1-(4-(((2-(2,4-dioxotetrahydropyrimidin-1(2H)-yl)pyridin-4-yl)methyl)amino)benzyl)-1H-pyrazol-4-yl)-9-methyl-6-oxo-6,7,8,9-tetrahydropyrido[3',2':4,5]pyrrolo[1,2-a]pyrazine-2-carboxamide] | 30 to 40 | 40 to 53 | A (A is defined as 0% ≤ substrate protein remaining % ≤ 80%) | B (B is defined as substrate protein remaining % > 80%)
4 | C[C@@H]1CNC(=O)c2cc3ccc(C(=O)Nc4cnn(Cc5ccc(N6CCN(Cc7ccc(C8CCC(=O)NC8=O)cc7)CC6)cc5)c4)nc3n21 (stereo partly drawn) [GT-07926, (9R)-N-(1-(4-(4-(4-(2,6-dioxopiperidin-3-yl)benzyl)piperazin-1-yl)benzyl)-1H-pyrazol-4-yl)-9-methyl-6-oxo-6,7,8,9-tetrahydropyrido[3',2':4,5]pyrrolo[1,2-a]pyrazine-2-carboxamide] | 60 to 80 | 80 to 100 | A (A is defined as 0% ≤ substrate protein remaining % ≤ 80%) | B (B is defined as substrate protein remaining % > 80%)
5 | C[C@@H]1CNC(=O)c2cc3ccc(C(=O)Nc4cnn(Cc5ccc(N6CCC(N7CCN(Cc8cccc(N9CCC(=O)NC9=O)c8)CC7)CC6)cc5)c4)nc3n21 [GT-07953, (R)-N-(1-(4-(4-(4-(3-(2,4-dioxotetrahydropyrimidin-1(2H)-yl)benzyl)piperazin-1-yl)piperidin-1-yl)benzyl)-1H-pyrazol-4-yl)-9-methyl-6-oxo-6,7,8,9-tetrahydropyrido[3',2':4,5]pyrrolo[1,2-a]pyrazine-2-carboxamide] | 20 to 30 | 53 to 60 | A (A is defined as 0% ≤ substrate protein remaining % ≤ 80%) | A (A is defined as 0% ≤ substrate protein remaining % ≤ 80%)
